The test system of series [1] is bloodstream trypomastigotes NINOA and INC-5 of T. cruzi. Details: method as in PMID 24691716. To be noted: 5 µg/mL (M2 = 14.73 µM, M8 = 17.98 µM, M6 = 14.91 µM); NINOA and INC-5 bloodstream trypomastigotes; cited from earlier work.
The next series has as its target T1, recombinant T. cruzi TR (Trypanosoma cruzi, UniProt P28593).
T1 construct: made in house
As to the kind of experiment: TR enzyme inhibition (NADPH consumption at 340 nm). The conditions noted are these: for inhibitory activity on TR: even when tested at 100 μM, 100 μM or 40 μM TS2; for inhibition at 40 µM: inhibitor 40 µM; for inhibition at 100 µM: inhibitor 100 µM; for inhibition at 20 µM: inhibitor 20 µM; for inhibition at 60 µM: inhibitor 60 µM; for inhibition at 80 µM: inhibitor 80 µM, T-085 precipitates in the assay at 80 µM. Format: biochemical. The procedure:
Trypanothione disulfide (TS2) and recombinant T. cruzi TR were prepared following published procedures. Recombinant human glutathione reductase (GR) was kindly provided by Dr. Heiner Schirmer, Heidelberg Germany. Stock solutions (5 mM) of the inhibitors were prepared in DMSO. The kinetic analyses were conducted using a Jasco V650 spectrophotometer. All enzymatic tests were performed in polystyrene optical cuvettes (10 × 4 × 45 mm). TR activity was measured at 25 °C in a total volume of 1 mL TR assay buffer (40 mM HEPES, 1 mM EDTA, pH 7.5 [47]) containing 100 μM NADPH and 5–10 mU enzyme in the absence and presence of the inhibitor. Each assay contained a total of 5% DMSO. The reaction was started by adding TS2 and NADPH consumption was followed at 340 nm.
Five compound concentrations were used ranging from 100–5 μM. All measurements were performed twice in three independent series. Enzyme activity was plotted versus increasing inhibitor concentrations. IC50 values were calculated using the four-parameter equation model 205 and the option “unlock” from the XLfit add-in (IDBS, Guildford, United Kingdom) for Excel (Microsoft Corporation, Redmond, WA, USA).
The type of inhibition and the inhibitor constants were derived from Lineweaver-Burk plot. The activity of TR was measured in the absence and presence of two to three constant concentrations of inhibitor varying the concentration of TS2 (20, 40, 60, 100 and 200 µM). The inhibitory constant Ki was calculated from the direct plot using nonlinear least-squares data fitting in Excel spreadsheet.

For series [2], the system named is T. cruzi INC-5 epimastigotes. As to the kind of experiment: Viability (MTT) assay on T. cruzi epimastigotes. The format is cell-based, Trypanosoma cruzi. To be noted: Trypanosoma cruzi, 24 h, mean and SD of triplicate. The procedure: In this study, two strains of T. cruzi isolated in Mexico were used. […] Epimastigotes were cultured in vitro in liver infusion-tryptose (LIT) medium supplemented with 10% heat inactivated fetal bovine serum (FBS) (Gibco) and 100 U/mL penicillin-streptomycin (In vitro S.A.), and incubated at 27 °C. CD1 mice, aged 6–8 weeks, were infected with T. cruzi to obtain bloodstream trypomastigote samples.
Viability assays of T. cruzi epimastigotes using 3-(4,5-dimethylthiazol-2-yl)-2,5-diphenyltetrazolium bromide (MTT) were performed. Briefly, the parasites were harvested during the exponential growth phase for a period of five days. In a 96-well microplate 1x10^6 epimastigotes were deposited in brain-heart infusion (BHI) medium supplemented with 10% FBS and 100 U/mL antibiotic-antifungal mixture (Gibco). […] Each well reached a final volume of 100 µL. Each condition was assessed in triplicate. The microplate was incubated for 24 h at 27 °C in darkness. Afterwards, 10 μL of a 5 mg/mL MTT solution was added and the plate was incubated for 20 h at 27 °C. Then 200 μL of 10% dodecyl sulfate (SDS)/0.1% HCl solution was added to dissolve formazan salts; the plate was incubated an additional 4 h. Finally, the plate was read at 570 nm in a spectrophotometer (Multiskan EX Thermo Electron, Taipei, Taiwan). The amount of viable cells was proportional to the amount of formazan produced. […] Later the results were converted to micromolar units. […] As a […] control, parasites were incubated only in culture medium with a 1% DMSO concentration, corresponding to the highest sample dilution of DMSO [34, 35, 36].

The nature of series [3]: Cytotoxicity assay (Alamar Blue) on macrophages. The conditions noted are these: mouse, J774A.1 macrophages, mean and SD of triplicate. Format: cell-based, murine. The procedure: The murine macrophage cell line J774.A1 was maintained in culture flasks with RPMI 1640 medium supplemented with 10% FBS, 1% MEM-NEAA medium (Gibco) and 100 U/mL antibiotic-antifungal mixture (Gibco). Cells were incubated at 37 °C with 5% CO2 and humidity. Trypsinized J774.A1 macrophages were washed and viability was assessed by the trypan blue dye (Sigma-Aldrich, Toluca, Edo de Mexico, Mexico) exclusion assay. In a 96-well microplate, 50,000 macrophages were seeded per well and a dose-response assay was performed. Compounds were evaluated using six-fold serial dilutions ranging from 100 µg/mL to 0.3 µg/mL of final concentration. Each compound was tested in triplicate. After 20 h incubation, Alamar Blue was added (10% v/v) and cells were incubated for an additional 4 h period. Results were obtained as previously described and CC50 was calculated. As a negative control of cytotoxicity, cells were incubated only in the presence of 0.1% DMSO [39, 40].
Background: Resazurin is reduced to fluorescent resorufin, in cell work by metabolically active cells.

Series [4] deals with T. cruzi bloodstream trypomastigotes NINOA strain. As to the kind of experiment: microbe, parasite or virus in culture. Format: cell-based. To be noted: Trypanosoma cruzi; 50 μg/mL, 24 h at 4 °C, infected mouse blood; read-out: % Lysis at 50 μg/mL NINOA Strain. The procedure: (§1) In this study, two strains of T. cruzi isolated in Mexico were used. T. cruzi NINOA strain (MHOM/MX/1994/NINOA) was obtained from a patient with acute Chagas disease and T. cruzi INC-5 (MHOM/MX/1994/INC5) was isolated from a patient in the chronic phase of the disease. Epimastigotes were cultured in vitro in liver infusion-tryptose (LIT) medium supplemented with 10% heat inactivated fetal bovine serum (FBS) (Gibco) and 100 U/mL penicillin-streptomycin (In vitro S.A.), and incubated at 27 °C. CD1 mice, aged 6–8 weeks, were infected with T. cruzi to obtain bloodstream trypomastigote samples. Animal experiments were performed according to Norma Oficial Mexicana (NOM-062-Z00-1999) published on 22 August, 2009.
(§2) CD1 female mice 6–8 weeks old were infected with T. cruzi bloodstream trypomastigotes of the INC-5 and NINOA strains. The course of infection continued for 4–6 weeks. At the peak of parasitemia blood was obtained by cardiac puncture using sodium heparin as an anticoagulant. The blood was adjusted to 1 × 10^6 bloodstream trypomastigotes/mL.
(§3) In each well of the 96-well plate, 195 μL of infected blood and 5 μL of quinoxaline 1,4-di-N-oxide derivatives or reference drug dilutions were seeded, with each well reaching a final volume of 200 µL. Each assay was performed in triplicate. Initially, all compounds were tested at 50 μg/mL. […] As a negative control of lysis, wells with untreated blood trypomastigotes were used, and as a positive control, wells with the reference drugs were used. The microplates were incubated at 4 °C for 24 h. Bloodstream trypomastigotes were quantified by the method of Brener-Pizzi, 5 μL of blood were placed on a slide and covered with a coverslip 13 × 13 mm. The mobile protozoa were counted in 15 fields at 40× magnification using an optical microscope. The percentage lysis was determined by comparing the remaining trypomastigotes against the negative control. LC50 was determined with the Probit statistical tool. The results were later converted to micromolar units.

Series [5] relates to T. cruzi bloodstream trypomastigotes INC-5 strain. As to the kind of experiment: microbe, parasite or virus in culture. The format is cell-based. The conditions noted are these: Trypanosoma cruzi; 50 μg/mL, 24 h at 4 °C, infected mouse blood; read-out: % Lysis at 50 μg/mL INC-5 Strain. The procedure:
as §1, §2, §3

Another series has as its target TR. The conditions noted are these: known TR inhibitor, quoted for comparison; no reference given; cited from earlier work.
Where [6] appears, read: 40 µM TS2, read-out: % Inhibition of TR at 40 µM [TS2].
Where [7] appears, read: 100 µM TS2, read-out: % Inhibition of TR at 100 µM [TS2].

Read-outs that look alike come from different tables or passages of the source.

T1 sequence (P28593 whole entry): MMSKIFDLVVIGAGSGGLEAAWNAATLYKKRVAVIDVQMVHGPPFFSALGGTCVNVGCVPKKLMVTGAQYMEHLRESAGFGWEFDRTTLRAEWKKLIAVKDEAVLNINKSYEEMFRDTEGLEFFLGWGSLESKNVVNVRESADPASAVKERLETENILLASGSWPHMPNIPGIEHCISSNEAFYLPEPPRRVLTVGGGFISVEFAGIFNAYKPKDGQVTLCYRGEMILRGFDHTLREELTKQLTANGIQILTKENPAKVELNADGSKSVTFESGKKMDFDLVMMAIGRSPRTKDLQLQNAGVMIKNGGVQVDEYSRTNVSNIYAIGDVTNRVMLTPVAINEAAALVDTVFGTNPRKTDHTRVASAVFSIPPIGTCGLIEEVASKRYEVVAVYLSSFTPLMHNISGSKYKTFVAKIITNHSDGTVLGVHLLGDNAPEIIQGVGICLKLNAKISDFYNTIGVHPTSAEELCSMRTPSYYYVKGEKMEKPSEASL

A word on the inhibition: it is the drop in the measured response relative to a control, in per cent. Regarding `COC(=O)c1ccc2c(c1)[n+]([O-])c(C(N)=O)c(C)[n+]2[O-]` [Compound T-044], the “% lysis at 5 µg/mL” value in series [1] was “about 50%”. Besides, the “inhibitory activity on TR” value on recombinant T. cruzi TR is “no or negligible inhibitory activity”. On recombinant T. cruzi TR (setting [6]), the inhibition at 40 µM is 0% and the inhibition at 100 µM worked out at 0%. At recombinant T. cruzi TR (setting [7]), the inhibition at 40 µM stood at 0% and the inhibition at 100 µM is 0%.
With `COC(=O)c1ccc2c(c1)[n+]([O-])c(C(=O)c1ccccc1)c(C)[n+]2[O-]` [Compound T-003], the “% lysis at 5 µg/mL” value in series [1] is reported as “about 50%”. Besides, on recombinant T. cruzi TR (setting [6]), the inhibition at 20 µM is 6.6%, the inhibition at 40 µM turned out to be 9%, the inhibition at 60 µM worked out at 14.8% and the inhibition at 80 µM is 20.5%. Further, the inhibition at 100 µM at recombinant T. cruzi TR (setting [6]) was 23.8%. For the same compound, at recombinant T. cruzi TR (setting [7]), the inhibition at 20 µM was 6%, the inhibition at 40 µM amounted to 10%, the inhibition at 60 µM stood at 12% and the inhibition at 80 µM amounted to 18%. The inhibition at 100 µM on recombinant T. cruzi TR (setting [7]) was found to be 19.3%.
In general, IC50 refers to the concentration at which inhibition is half-maximal. High values mean weaker potency, low ones greater potency. Broadly, the CC50 is the concentration at which the toxic effect on the cells reaches its halfway point. A low value points to greater toxicity to the cells. For `CC(C)OC(=O)c1ccc2c(c1)[n+]([O-])c(C(=O)C(F)(F)C(F)(F)F)c(C(F)(F)F)[n+]2[O-]` [Compound T-118, Isopropyl 2-pentafluorocarbonyl-3-trifluoromethylquinoxaline-7-carboxylate 1,4-di N-oxide], half-maximal inhibition in series [2] (IC50) was put at 72.2 ± 8 µM. This compound also returned a half-maximal cytotoxic concentration (CC50) at 24 h in series [3] of 157 ± 6.3 µM. Also, the killing at 50 µg/mL in series [4] was found to be 34.4 ± 3.1%; in series [5], 0%.
The compound `CCCOC(=O)c1ccc2c(c1)[n+]([O-])c(C(C)=O)c(C)[n+]2[O-]` [Compound T-126, n-Propyl 2-acetyl-3-methylquinoxaline-7-carboxylate 1,4-di-N-oxide] came in with an IC50 in series [2] of over 163 µM. The CC50 at 24 h in series [3] was over 327 µM. Moreover, the killing at 50 µg/mL in series [4] turned out to be 17.7 ± 3.1%; in series [5], 0%.
`CCCOC(=O)c1ccc2c(c1)[n+]([O-])c(C(=O)OCC)c(C)[n+]2[O-]` [Compound T-090, n-Propil ethyl-3-methylquinoxaline-2,7-dicarboxylate 1,4-di-N-oxide] yielded an IC50 in series [2] of 155 ± 12.3 µM. The midpoint of cytotoxicity in series [3], the CC50 at 24 h, lay at 146 ± 9.2 µM. In addition, the killing at 50 µg/mL is 28.6 ± 3.1% in series [4] and 47.3 ± 3.3% in series [5].
For `CCCOC(=O)c1ccc2c(c1)[n+]([O-])c(C(=O)OC(C)(C)C)c(C)[n+]2[O-]` [Compound T-091, n-Propil tert-butyl-3-methylquinoxaline-2,7-dicarboxylate 1,4-di-N-oxide], the half-inhibitory concentration (IC50) in series [2] is over 137 µM. For the same compound, the CC50 at 24 h in series [3] was over 273 µM. In addition, the values for the killing at 50 µg/mL in series [4] and in series [5] were 7.3 ± 3.3% and 8.15 ± 2.2%, respectively.
For the compound `CCCOC(=O)c1ccc2c(c1)[n+]([O-])c(C(N)=O)c(C)[n+]2[O-]` [Compound T-130, n-Propyl 2-amide-3-methylquinoxaline-7-carboxylate 1,4-di-N-oxide], in series [2], the 50% inhibitory concentration (IC50) worked out at 238 ± 11.5 µM. The compound also registered a half-maximal cytotoxic concentration (CC50) at 24 h in series [3] of over 326 µM. Besides, the killing at 50 µg/mL in series [4] is 4.65 ± 3.4%; in series [5], 0.69 ± 1.2%.
Compound `Cc1c(C(=O)c2ccccc2)[n+]([O-])c2cc(C(=O)OC(C)C)ccc2[n+]1[O-]` [Compound T-098, Isopropyl 2-benzoyl-3-methylquinoxaline-7-carboxylate 1,4-di-N-oxide] registered a half-maximal inhibitory concentration (IC50) in series [2] of 142 ± 8.3 µM. For the same compound, half-maximal cytotoxicity in series [3] (CC50 at 24 h) was put at 140 ± 8.1 µM. Moreover, the killing at 50 µg/mL stood at 6.89 ± 5.8% in series [4] and 0.34 ± 0.6% in series [5].
A word on the Ki: it is a measure of affinity in units of concentration, obtained from inhibition or displacement. In the case of `CCN(CC)CCCC(C)Nc1c2ccc(Cl)cc2nc2ccc(OC)cc12` (stereo not shown) [mepacrine], the Ki at TR was 19 µM.
Turning to `COC(=O)c1ccc2c(c1)[n+]([O-])c(C(=O)OC(C)(C)C)c(C)[n+]2[O-]` [Compound T-021], in series [1], the “% lysis at 5 µg/mL” value is “about 50%”. The “inhibitory activity on TR” value at recombinant T. cruzi TR is recorded as “no or negligible inhibitory activity”. The inhibition at 40 µM at recombinant T. cruzi TR (setting [6]) and on recombinant T. cruzi TR (setting [7]) was 0% in each case. Moreover, the inhibition at 100 µM at recombinant T. cruzi TR (setting [6]) stood at 7.5%; on recombinant T. cruzi TR (setting [7]), 0%.
`CCOC(=O)c1c(C)[n+]([O-])c2ccc(C(=O)OC(C)C)cc2[n+]1[O-]` [Compound T-065, Isopropyl ethyl-3-methylquinoxaline-2,7-dicarboxylate 1,4-di-N-oxide] displayed an IC50 in series [2] of over 148 µM. This compound also gave a half-maximal cytotoxic concentration (CC50) at 24 h in series [3] of over 296 µM. Moreover, the killing at 50 µg/mL in series [4] came out at 0.77 ± 1.58%; in series [5], 3.78 ± 5.7%.
